Data set [1] deals with ACE-2 (Rattus norvegicus, UniProt Q5EGZ1). Briefly: ACE-2 Competitive Substrate Assay, rat ACE-2. Type of data set: biochemical. As to conditions: Ki class; compounds tested in 5% DMSO, 12 concentrations.
Protocol: (§1) ACE-2 enzymatic activity was assayed in microtitre plates by the following procedure. The ACE-2 assay buffer used contained 50 mM MES (Boehringer-Mannheim), 300 mM NaCl (Sigma) and 0.01% Brij-35 (Pierce Chemical Co.) at pH 6.5.
(§2) Reactions were mixed and incubated at 25° C.
The activity of the test compounds was investigated using the procedure outlined above. The compounds were tested in 5% DMSO. Enzyme activity was measured at 12 compound concentrations.
Data set [2] addresses T1, ACE (Sigma, A2580) (Sus scrofa, UniProt F1RRW5).
T1 construct: ACE from porcine kidney; purchased Sigma A2580; host or cells: porcine kidney
T1 sequence (F1RRW5 34-1309): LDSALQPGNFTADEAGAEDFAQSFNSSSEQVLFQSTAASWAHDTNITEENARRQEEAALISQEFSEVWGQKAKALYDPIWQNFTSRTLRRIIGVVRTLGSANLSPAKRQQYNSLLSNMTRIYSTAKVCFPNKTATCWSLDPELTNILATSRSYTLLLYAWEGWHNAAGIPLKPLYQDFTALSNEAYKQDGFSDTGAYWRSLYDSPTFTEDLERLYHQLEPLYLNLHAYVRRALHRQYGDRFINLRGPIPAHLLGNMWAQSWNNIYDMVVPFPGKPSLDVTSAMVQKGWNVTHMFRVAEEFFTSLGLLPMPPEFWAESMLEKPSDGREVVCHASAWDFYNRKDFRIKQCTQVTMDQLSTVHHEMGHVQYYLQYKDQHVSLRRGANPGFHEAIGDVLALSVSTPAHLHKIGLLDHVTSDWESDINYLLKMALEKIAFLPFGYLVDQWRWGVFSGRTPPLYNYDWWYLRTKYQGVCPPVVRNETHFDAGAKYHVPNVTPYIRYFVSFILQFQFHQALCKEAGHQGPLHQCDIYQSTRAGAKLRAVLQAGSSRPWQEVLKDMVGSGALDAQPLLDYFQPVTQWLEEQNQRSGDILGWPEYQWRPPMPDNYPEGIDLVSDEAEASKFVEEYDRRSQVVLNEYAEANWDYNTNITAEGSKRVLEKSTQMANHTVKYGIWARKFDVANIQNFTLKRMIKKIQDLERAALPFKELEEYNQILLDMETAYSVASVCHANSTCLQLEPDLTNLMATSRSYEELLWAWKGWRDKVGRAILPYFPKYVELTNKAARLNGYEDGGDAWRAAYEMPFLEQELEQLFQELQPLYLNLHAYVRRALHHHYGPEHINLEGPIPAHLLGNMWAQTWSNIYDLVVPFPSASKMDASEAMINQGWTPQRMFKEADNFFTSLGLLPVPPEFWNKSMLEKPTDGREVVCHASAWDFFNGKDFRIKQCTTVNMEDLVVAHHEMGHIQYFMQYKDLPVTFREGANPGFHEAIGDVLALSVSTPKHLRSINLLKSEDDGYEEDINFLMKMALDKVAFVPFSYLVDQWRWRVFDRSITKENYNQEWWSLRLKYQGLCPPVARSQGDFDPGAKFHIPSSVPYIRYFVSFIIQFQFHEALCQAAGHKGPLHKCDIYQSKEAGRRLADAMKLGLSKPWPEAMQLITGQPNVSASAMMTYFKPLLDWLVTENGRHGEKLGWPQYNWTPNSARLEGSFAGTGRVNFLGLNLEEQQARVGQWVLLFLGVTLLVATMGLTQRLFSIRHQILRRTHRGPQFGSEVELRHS
Briefly: ACE enzymatic activity assay. The conditions noted are these: Ki class; compounds tested in 5% DMSO, 12 concentrations. It is filed as biochemical, porcine. The gist of the method: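 Fluorogenic substrate cleavage by 1 nM ACE, read at 320/405 nm after EDTA stop at ~30 min. Reactions at 25 °C, pH 7.5, in HEPES/NaCl/Brij-35 buffer; compounds tested at 12 concentrations in 5% DMSO.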

The target in data set [3] is T2, Carboxypeptidase A (Bos taurus, UniProt P00730).
T2 sequence (P00730 111-419): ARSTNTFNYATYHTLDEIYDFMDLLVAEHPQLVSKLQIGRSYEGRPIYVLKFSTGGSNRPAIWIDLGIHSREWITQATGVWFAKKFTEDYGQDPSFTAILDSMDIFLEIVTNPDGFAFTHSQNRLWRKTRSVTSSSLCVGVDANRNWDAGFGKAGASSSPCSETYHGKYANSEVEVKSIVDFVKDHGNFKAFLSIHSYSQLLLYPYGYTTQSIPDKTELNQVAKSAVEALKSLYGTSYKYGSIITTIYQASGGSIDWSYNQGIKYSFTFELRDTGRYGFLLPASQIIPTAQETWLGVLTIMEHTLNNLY
Briefly: Carboxypeptidase A activity assay. It is filed as biochemical. As to conditions: Ki class; compounds tested in 5% DMSO, 12 concentrations. An outline of the steps:
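Ki obtained by correcting apparent Ki for substrate, Ki=Kiapp/(1+[S]/Km), from 12-concentration series. Enzyme activity read by absorbance at 328 nm with 5% DMSO present, EDTA stop.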

In data set [4] the target is T3, ACE-2 (Homo sapiens, UniProt Q9BYF1).
T3 construct: a stop codon inserted after the serine immediately preceding the transmembrane domain; made in house; host or cells: CHO K1 cells (transient transfection, purified from conditioned medium)
T3 sequence (Q9BYF1 18-740 limits assumed): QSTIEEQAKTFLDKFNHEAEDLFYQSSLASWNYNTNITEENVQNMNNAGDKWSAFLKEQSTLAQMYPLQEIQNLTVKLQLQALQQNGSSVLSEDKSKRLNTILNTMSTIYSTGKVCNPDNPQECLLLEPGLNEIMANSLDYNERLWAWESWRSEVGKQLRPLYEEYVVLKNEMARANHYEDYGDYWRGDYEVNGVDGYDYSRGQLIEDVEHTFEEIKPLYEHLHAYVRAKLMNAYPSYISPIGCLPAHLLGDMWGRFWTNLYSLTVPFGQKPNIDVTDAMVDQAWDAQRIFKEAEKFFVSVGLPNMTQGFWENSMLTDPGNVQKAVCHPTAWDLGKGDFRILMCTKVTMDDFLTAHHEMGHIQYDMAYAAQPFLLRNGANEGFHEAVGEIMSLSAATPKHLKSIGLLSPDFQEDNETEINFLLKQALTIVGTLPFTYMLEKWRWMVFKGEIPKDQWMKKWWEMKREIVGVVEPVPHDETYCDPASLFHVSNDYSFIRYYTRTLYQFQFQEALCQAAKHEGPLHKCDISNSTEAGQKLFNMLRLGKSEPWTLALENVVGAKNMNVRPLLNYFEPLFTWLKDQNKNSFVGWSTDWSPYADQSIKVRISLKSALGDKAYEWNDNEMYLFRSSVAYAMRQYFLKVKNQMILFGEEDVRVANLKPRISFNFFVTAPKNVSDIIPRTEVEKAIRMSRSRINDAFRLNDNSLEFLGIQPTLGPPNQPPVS
The data set can be described thus: ACE-2 Competitive Substrate Assay (ACS Assay). Type of data set: biochemical. As to conditions: Ki class; compounds tested in 5% DMSO, 12 concentrations; read-out: Human ACE-2 Activity.

Data set [5] is described as follows: Effect on appetite: food consumption in ICR mice. The conditions noted are these: 3 mg/kg oral.
Data set [6] relates to COc1ccc2c(CC(=O)N[C@@H](Cc3ccc(O)cc3)C(=O)N[C@H](C(=O)N[C@@H](C)C(=O)N[C@@H](CC(=O)O)C(=O)N[C@@H](C)C(=O)N3CCC[C@H]3C(=O)N[C@@H](CCCCNc3ccc([N+](=O)[O-])cc3[N+](=O)[O-])C(=O)O)C(C)C)cc(=O)oc2c1. The data set can be described thus: purified protein, by the assay type. The conditions noted are these: other: fluorogenic substrate of ACE-2, pH 6.5, 25° C.
Protocol: as §1, §2
Data set [7] deals with COc1ccc2c(CC(=O)N[C@@H](C)C(=O)N3CCC[C@H]3C(=O)N[C@@H](CCCCNc3ccc([N+](=O)[O-])cc3[N+](=O)[O-])C(=O)O)cc(=O)oc2c1. Briefly: purified protein, by the assay type. As to conditions: other: fluorogenic substrate of ACE-2, pH 6.5, 25° C.
Protocol: as §1, §2

A value given as a limit tells only on which side of the number the result lay.

Chain of ACE-2 (Rattus norvegicus, UniProt Q5EGZ1) (Q5EGZ1 18-805): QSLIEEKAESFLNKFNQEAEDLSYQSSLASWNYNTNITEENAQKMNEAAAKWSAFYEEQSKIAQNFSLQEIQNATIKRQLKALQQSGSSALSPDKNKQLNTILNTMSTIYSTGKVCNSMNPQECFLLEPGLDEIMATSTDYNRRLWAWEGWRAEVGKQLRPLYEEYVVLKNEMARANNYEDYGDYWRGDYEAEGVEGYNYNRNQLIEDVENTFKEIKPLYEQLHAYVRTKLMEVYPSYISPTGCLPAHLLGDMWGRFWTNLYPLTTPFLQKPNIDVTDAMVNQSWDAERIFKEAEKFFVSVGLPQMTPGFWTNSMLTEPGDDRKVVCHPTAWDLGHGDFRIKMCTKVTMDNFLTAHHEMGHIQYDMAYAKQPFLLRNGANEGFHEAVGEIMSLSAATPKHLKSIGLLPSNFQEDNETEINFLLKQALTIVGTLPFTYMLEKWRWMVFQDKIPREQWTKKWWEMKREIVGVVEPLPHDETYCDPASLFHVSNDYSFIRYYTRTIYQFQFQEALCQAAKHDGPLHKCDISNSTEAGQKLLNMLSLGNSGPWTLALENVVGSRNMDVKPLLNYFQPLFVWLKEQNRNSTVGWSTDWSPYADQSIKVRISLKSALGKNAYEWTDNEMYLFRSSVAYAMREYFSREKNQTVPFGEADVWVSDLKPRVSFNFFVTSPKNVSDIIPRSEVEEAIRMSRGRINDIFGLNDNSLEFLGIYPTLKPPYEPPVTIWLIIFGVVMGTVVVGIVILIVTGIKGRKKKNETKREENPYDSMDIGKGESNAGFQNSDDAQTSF

Consider `O=C(O)[C@H](CC#Cc1ccccn1)N[C@H](CCc1ccccc1)C(=O)O` [EB, 2-(1-Carboxy-3-phenyl-propylamino)-5-pyridin-2-yl-pent-4-ynoic acid], for which the Ki in data set [1] was > 0.5 µM; in data set [2], > 50 µM; in data set [3] it was 10 to 50 µM; in data set [4], > 0.5 µM.

`CC(C)CC(N[C@@H](Cc1cn(Cc2ccc(Cl)cc2)cn1)C(=O)O)C(=O)O` (stereo partly drawn) [EC, 2-{1-Carboxy-2-[1-(4-chloro-benzyl}-1H-imidazol-4-yl]-ethylamino)4-methyl-pentanoic acid]: the Ki in data set [1] was > 0.5 µM; in data set [2], 10 to 50 µM; in data set [3], < 10 µM; in data set [4], > 0.5 µM.

In the case of `CC(C)CC(N[C@H](CC(=O)O)Cc1ccco1)C(=O)O` (stereo partly drawn) [EH, 2-(1-Carboxymethyl-2-furan-2-yl-ethylamino)-4-methyl-pentanoic acid], the Ki was > 0.5 µM in data set [1], > 50 µM in data set [2], > 50 µM in data set [3] and > 0.5 µM in data set [4].

On to `CC(C)CC(N[C@@H](Cc1cn(Cc2ccc(C(F)(F)F)cc2)cn1)C(=O)O)C(=O)O` (stereo partly drawn) [EL, 2-{1-Carboxy-2-[1-(4-trifluoromethyl-benzyl)-1H-imidazol-4-yl}-ethylamino]4-methyl-pentanoic acid], for which the Ki in data set [1] is 0.1 to 0.5 µM; in data set [2], > 50 µM; in data set [3] it was 10 to 50 µM; in data set [4], > 0.5 µM.

Take `COc1ccc(Cn2cnc(C[C@H](NC(CC(C)C)C(=O)O)C(=O)O)c2)cc1` (stereo partly drawn) [EM, 2-[1-Carboxy-2-[1-(4-methoxy-benzyl)-1H-imidazol-4-yl]-ethylamino)4-methyl-pentanoic acid]: the Ki in data set [1] was > 0.5 µM; in data set [2], > 50 µM; in data set [3] it was > 50 µM; in data set [4], > 0.5 µM.

Turning to `CC(C)CC(N[C@@H](Cc1c[nH]cn1)C(=O)NCC(=O)O)C(=O)O` (stereo partly drawn) [FD, 2-[1-(Carboxymethyl-carbamoyl)-2-(1H-imidazol-4-yl)-ethylamino]4-methyl-pentanoic acid], the Ki was > 0.5 µM in data set [1], < 10 µM in data set [2], > 50 µM in data set [3] and > 0.5 µM in data set [4].

In the case of `CC(C)CC(N[C@@H](CN(C)c1ccccc1)C(=O)O)C(=O)O` (stereo partly drawn) [FS, 2-[1-Carboxy-2-(methyl-phenyl-amino)-ethylamino]-4-methyl-pentanoic acid], the Ki was < 0.1 µM in data set [1], > 50 µM in data set [2], 10 to 50 µM in data set [3] and > 0.5 µM in data set [4].

Take `CC(C)CC(N[C@H](CN(C)c1ccccc1)C(=O)O)C(=O)O` (stereo partly drawn) [FT, 2-[1-Carboxy-2-(methyl-phenyl-amino)-ethylamino]-4-methyl-pentanoic acid]: the Ki in data set [1] was > 0.5 µM; in data set [2] it was > 50 µM; in data set [3] it was > 50 µM; in data set [4], > 0.5 µM.

For the molecule `CC(C)CC(N[C@@H](Cc1cncn1Cc1ccc(C(F)(F)F)cc1)C(=O)O)C(=O)O` (stereo partly drawn) [GI, 2-[1-Carboxy-2-[3-(4-trifluoromethyl-benzyl)-imidazol-4-yl]-ethylamino]-4-methyl-pentanoic acid], the Ki in data set [1] was < 0.1 µM; in data set [2] it was > 50 µM; in data set [3], 10 to 50 µM; in data set [4] it was < 0.1 µM.

For `CC(C)CC(N[C@@H](Cc1cncn1Cc1ccc(C(F)(F)F)cc1)C(=O)O)C(=O)O` (stereo partly drawn) [GJ, 2-[1-Carboxy-2-[3-(4-trifluoromethyl-benzyl)-3H-imidazol-4-yl]-ethylamino]4-methyl-pentanoic acid], the Ki in data set [1] is > 0.5 µM; in data set [2], 10 to 50 µM; in data set [3] it was 10 to 50 µM; in data set [4] it was > 0.5 µM.

In the case of `CC(C)C[C@H](N[C@@H](C(=O)O)c1ccccc1)C(=O)O` [R, 2-[(Carboxy-phenyl-methyl)-amino]-4-methyl-pentanoic acid], the Ki in data set [1] is > 0.5 µM; in data set [2], > 50 µM; in data set [3] it was > 50 µM; in data set [4], > 0.5 µM.

In the case of `CC(C)C[C@H](N[C@H](CC(=O)O)C(=O)O)C(=O)O` [U, 2-(1-Carboxy-3-methyl-butylamino)-succinic acid], the Ki in data set [1] was > 0.5 µM; in data set [2] it was > 50 µM; in data set [3] it was > 50 µM; in data set [4], > 0.5 µM.

As to `CC(N)Cc1ccccc1` (stereo not drawn) [amphetamine, reference compound], the cumulative food consumption result is recorded as “about 0.18±0.05 g” in data set [5] (one hour) and “about 3.10±0.03 g” in data set [5] (six hours).

Usually Km stands for the substrate concentration at which the rate is half of its maximum. Usually kcat/Km stands for the second-order rate constant that governs catalysis at low substrate concentration. ACE-2 (Homo sapiens): the values for the Km in data set [6] and in data set [7] were 130 µM and 340 µM, respectively. The kcat/Km in data set [6] was found to be 42000 M⁻¹ s⁻¹; in data set [7], 230000 M⁻¹ s⁻¹.

The values above are taken from patent US7045532B2 (Millennium Pharmaceuticals, Inc., priority 1999, dated 2006).
